Results from patent US7648959B2, “Methods and compositions for the treatment of diseases of the eye” (Merck Patent GmbH, priority 2000, dated 2010).
“And” between values parts separate entries of the source, which are not always exact repeats. Identical values can stand only once.

Test system: bFGF-Stimulated Corneal Angiogenesis
Test: rabbit corneal micropocket model, paralimbal intrascleral injection
Type: in vivo
Conditions: for Area of neovascularisation, MEAN / Area of neovascularisation (individual eye): single (Day 0) intrascleral injection, 100 μl, 2.0 mg/ml in PBS; for Area of neovascularisation, MEAN: mean of 12 eyes; for Area of neovascularisation (individual eye): one value per rabbit eye (R/L); for neovascularisation inhibited compared to the animal group receiving PBS only: single intrascleral injection 100 μl, 2.0 mg/ml, p<0.01
Procedure: (1996). In this model angiogenesis is stimulated by implantation of Hydron pellets containing an angiogenesis stimulating cytokine like, for example, fibroblast growth factor (FGF) or vascular endothelial growth factor (VEGF) into the cornea. After implantation the active compound to be tested is administered by paralimbal intrascleral injection. Effect on neovascularisation is measured after predetermined time intervals by visual examination using a microscope, photographing and computer-assisted quantification of photographs.
The effect of intrascleral application of an αvβ3 and/or αvβ5 inhibitor was examined in rabbit corneal micropocket model as described by Shaffer R. W. (see above). As an example for an αvβ3 and/or αvβ5 inhibitor (2S)-2-(2,2-dimethylpropyloxycarboxamido)-3-{3,4-dihydro-2-[N-(2-imidazolyl)carbamoylethyl]-(2S)-2H-1,4-benzoxazin-3-on-6-yl}propionic acid was used in the experiment. For induction of angiogenesis Hydron pellets containing basic fibroblast growth factor (bFGF) were used. Preparation of bFGF containing implants was performed by casting Hydron [poly(hydroxyethyl)methacrylate] in specially prepared Teflon pegs that have a 5 mm core drilled into their surfaces. Approximately 12 μl of casting material was placed into each peg and polymerized overnight in a sterile hood, then sterilized by ultraviolet irradiation.
The experiment consisted of 12 animals; in each eye of the animals one individual pellet was implanted into a surgically created “pocket” in the mid stroma of the rabbit cornea. The surgical procedure was done under sterile technique using a Wild model M691 operating microscope equipped with a beamsplitter and camera for photographically recording individual corneas. A 69 Beaver blade was used to create a 3 mm by 5 mm “pocket” to a depth of half the corneal thickness. The stroma was dissected peripherally using an spatula and the pellet implanted with its peripheral margin 2 mm from limbus. Immediately after implantation of bFGF-containing Hydron pellets 6 of the 12 animals received in each eye 100 μl of a drug solution consisting of 2.0 mg/ml (2S)-2-(2,2-dimethylpropyloxycarboxamido)-3-3,4-dihydro-2-[N-(2-imidazolyl)carbamoylethyl]-(2S)-2H-1,4-benzoxazin-3-on-6-yl}propionic acid solubilized in phosphate buffered saline (PBS) by paralimbal intrascleral injection. For comparison the same procedure was performed in the other 6 animals using PBS only. Following implantation the eyes were photographed and the area of neovascularisation measured after predetermined intervals.

**Q.** Which results are given for CC(C)(C)COC(=O)N[C@@H](Cc1ccc2c(c1)NC(=O)[C@H](CCC(=O)Nc1ncc[nH]1)O2)C(=O)O [(2S)-2-(2,2-dimethylpropyloxycarboxamido)-3-{3,4-dihydro-2-[N-(2-imidazolyl)carbamoylethyl]-(2S)-2H-1,4-benzoxazin-3-on-6-yl}propionic acid]?
**A.** Area of neovascularisation, MEAN (5 Day Post-Implantation): 8.39 mm^2; Area of neovascularisation (individual eye) (5 Day Post-Implantation): 3.47 mm^2 and 26.79 mm^2 and 14.76 mm^2 and 7.70 mm^2 and 1.00 mm^2 and 0.88 mm^2 and 8.19 mm^2 and 2.26 mm^2 and 0.0 mm^2 and 7.31 mm^2 and 15.85 mm^2 and 12.45 mm^2; Area of neovascularisation, MEAN (7 Day Post-Implantation): 10.32 mm^2; Area of neovascularisation (individual eye) (7 Day Post-Implantation): 6.69 mm^2 and 27.96 mm^2 and 15.58 mm^2 and 11.32 mm^2 and 2.09 mm^2 and 1.91 mm^2 and 11.93 mm^2 and 3.51 mm^2 and 0.0 mm^2 and 11.56 mm^2 and 16.90 mm^2 and 14.40 mm^2; neovascularisation inhibited compared to the animal group receiving PBS only (5 days post implantation): 56.5%; neovascularisation inhibited compared to the animal group receiving PBS only (7 days post implantation): 52.3%
